Source: patent publication US10376476B2, “Panicein compounds, compositions and uses thereof” (CENTRE NATIONAL DE LA RECHERCHE SCIENTIFIQUE, priority 2014, dated 2019)

Target: T1, wild-type Patched (hPtc) expressed in yeasts (Homo sapiens, UniProt Q13635)
T1 construct: MAP; expressed in transfected cells; host or cells: Saccharomyces cerevisiae K699
T1 sequence (Q13635 1-1447): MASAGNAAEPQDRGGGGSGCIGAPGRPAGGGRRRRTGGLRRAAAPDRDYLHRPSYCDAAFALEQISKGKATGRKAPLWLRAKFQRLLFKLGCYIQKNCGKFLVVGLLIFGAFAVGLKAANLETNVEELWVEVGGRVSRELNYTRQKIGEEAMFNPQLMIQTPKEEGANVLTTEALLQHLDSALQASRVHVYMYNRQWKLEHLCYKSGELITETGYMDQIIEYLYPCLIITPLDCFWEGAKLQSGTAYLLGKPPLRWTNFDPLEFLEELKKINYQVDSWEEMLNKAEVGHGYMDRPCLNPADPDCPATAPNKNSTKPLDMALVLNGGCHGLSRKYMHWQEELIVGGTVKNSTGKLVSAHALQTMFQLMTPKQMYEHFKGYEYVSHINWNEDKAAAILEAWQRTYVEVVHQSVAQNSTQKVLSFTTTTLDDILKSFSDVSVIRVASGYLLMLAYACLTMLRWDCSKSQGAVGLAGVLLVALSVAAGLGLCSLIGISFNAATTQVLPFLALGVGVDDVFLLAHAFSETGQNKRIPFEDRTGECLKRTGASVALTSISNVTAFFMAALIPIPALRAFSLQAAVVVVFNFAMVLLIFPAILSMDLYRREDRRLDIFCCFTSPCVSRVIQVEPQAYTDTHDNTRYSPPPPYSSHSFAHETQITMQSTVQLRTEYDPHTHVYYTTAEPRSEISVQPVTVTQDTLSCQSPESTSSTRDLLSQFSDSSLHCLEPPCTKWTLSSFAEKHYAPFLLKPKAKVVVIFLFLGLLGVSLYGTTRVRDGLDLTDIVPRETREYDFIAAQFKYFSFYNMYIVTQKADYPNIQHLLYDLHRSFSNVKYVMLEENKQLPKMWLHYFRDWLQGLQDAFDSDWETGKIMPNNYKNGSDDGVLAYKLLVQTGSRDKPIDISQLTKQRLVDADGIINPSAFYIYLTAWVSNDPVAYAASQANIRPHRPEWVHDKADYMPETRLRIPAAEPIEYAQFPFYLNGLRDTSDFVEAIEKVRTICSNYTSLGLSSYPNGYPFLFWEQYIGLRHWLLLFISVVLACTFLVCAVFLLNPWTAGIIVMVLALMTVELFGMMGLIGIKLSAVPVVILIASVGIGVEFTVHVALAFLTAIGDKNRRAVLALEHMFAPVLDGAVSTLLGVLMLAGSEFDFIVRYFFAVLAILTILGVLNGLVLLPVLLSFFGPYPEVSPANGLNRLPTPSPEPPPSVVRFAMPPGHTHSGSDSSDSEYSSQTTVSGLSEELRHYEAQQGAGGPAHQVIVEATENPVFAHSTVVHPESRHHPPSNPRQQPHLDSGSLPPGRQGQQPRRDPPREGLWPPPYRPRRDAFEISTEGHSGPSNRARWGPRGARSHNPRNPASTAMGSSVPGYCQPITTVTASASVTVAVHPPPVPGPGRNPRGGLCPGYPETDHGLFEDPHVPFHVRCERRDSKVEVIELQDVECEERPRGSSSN
Assay: Doxorubicin efflux from yeasts (intracellular dxr fluorescence)
Format: cell-based
Settings: for Efflux (%) of dxr: WT-hPtc-yeasts, 10 μM paniceins, 10 min, 5 mM 2-deoxy-D-glucose; for dxr fluorescence in hPtc-expressing yeasts after efflux: 10 μM paniceins during efflux, contrary to control yeasts
Experimental: A. Compound P5 inhibits doxorubicin efflux from melanoma cells MeWo and A375. Cells were grown on cover-slips, incubated for 2 hour at 37° C. with 10 μM doxorubicin and quickly rinsed with phosphate buffer (pH 7.4). One cover-slip of each cell line was immediately fixed for doxorubicin charge control. The other cover-slips were incubated with buffer supplemented with DMSO or 10 μM of compound P5 30 min under gentle shaking and immediately fixed. Dxr intracellular fluorescence was visualized by epifluorescence and analyzed using Image J software on more than 30 cells of 3 different fields for each condition. The results were analyzed using the Student t test in which significance is attained at P<0.05 (**: P<0.005, ***: P<0.0005). B. Paniceins inhibit doxorubicin efflux from Patched-expressing yeasts. Yeasts expressing wild-type Patched (hPtc, in black), mutant Patched G509VD513Y (hPtcVXXXY, in grey), and control yeasts (in white) were incubated in buffer supplemented with 5 mM of 2-deoxy-D-glucose and 10 μM dxr for 2 hours at 4° C. After centrifugation and supernatant removing, one sample was immediately fixed for charge control and the other samples were resuspended in buffer containing 5 mM of 2-deoxy-D-glucose supplemented with DMSO or 10 μM of paniceins 10 minutes at 25° C. with gentle shaking. After centrifugation and supernatant removing, samples were fixed and deposited on coverslips for epifluorescence microscopy observation. Dxr intracellular fluorescence quantification was carried out using Image J software on more than 30 yeasts on 3 different fields for each condition. The results were analyzed using the Student t test in which significance is attained at P<0.05 (*).
On yeasts: Yeasts expressing Patched (hPtc), mutant Patched (hPtcG509VD513Y), or control yeasts were washed with cold water, resuspended at an OD600 of 10 in Hepes-NaOH buffer (pH 7.0) supplemented with 5 mM of 2-deoxy-D-glucose, and incubated with 10 μM doxorubicin for 2 hours at 4° C. in the cold room on a rotating wheel protected from light. Yeasts were centrifuged and the supernatant was removed. One sample was immediately fixed with 4% paraformaldehyde for doxorubicin loading control. The other samples were resuspended in Hepes-NaOH buffer (pH 7.0) containing 5 mM of 2-deoxy-D-glucose supplemented with DMSO or 10 μM of paniceins, and incubated 10 minutes at 20° C. with gentle shaking in a Benchmark Multi-therm shaker protected from light. Samples were centrifuged for 1 minute at 18,000 g, supernatants were removed and yeasts were fixed with 4% paraformaldehyde. 10 μL of each sample were deposited on a coverslip and observed by epifluorescence microscopy using an objective 63x and filters for Alexa 594. Quantification of doxorubicin intracellular fluorescence was carried out using Image J software on more than 30 yeasts on 3 different fields for each condition. The results were analyzed using the Student t test in which significance is attained at P <0.05.
In order to see if Paniceins inhibit dxr efflux through Patched inhibition, inventors compared dxr efflux on yeasts over-expressing human Patched and control yeasts. After loading with dxr, yeasts were centrifuged and fixed for dxr loading control (LC), or resuspended in buffer supplemented with DMSO or paniceins for efflux measurements. After 10 min a 20° C., yeasts were collected, fixed and deposited on cover-slips. 2-deoxy-D-glucose was added in buffer during loading and efflux in order to inhibit ATP-binding cassette (ABC) transporters. Dxr fluorescence intensity of at least 30 yeasts was measured for each experiment. FIGS. 6A and 12A show the mean fluorescence intensity of 3 independent experiments. […] This was confirmed using yeasts over-expressing Patched mutant VXXXY. […] Yeasts over-expressing hPtcVXXXY are less resistance to growth inhibition by dxr than yeasts over-expressing wild-type hPtc (Bidet et al., 2012).

Row | SMILES | Efflux (%) of dxr [%] | dxr fluorescence in hPtc-expressing yeasts after efflux
1 | C/C(=C\Cc1cc(O)ccc1O)CCc1c(C)c(O)c(O)c(C=O)c1C [P2, Panicein C] | 51 | 
2 | C/C(=C\Cc1cc(O)ccc1O)CCc1c(C)cc(O)c(C=O)c1C [P3, Panicein B3] | 46 | 
3 | Cc1cc(O)c(C=O)c(C)c1CCC1(C)C=Cc2cc(O)ccc2O1 (stereo not drawn) [P4, Panicein B2] | 46 | significantly higher amounts of dxr fluorescence
4 | COc1cc(C)c(CC/C(C)=C/Cc2cc(O)ccc2O)c(C)c1C [P5, Panicein A hydroquinone] | 40 | significantly higher amounts of dxr fluorescence
